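Assay format: 96-well plates, 48-hour exposure. At the GI50, growth is halved. At the TGI there is no net growth.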
Legend:
Assay in all cases: growth of human tumour cells (NCI), 48 h
EKVX NSCLC = tested on: EKVX NSCLC
SK-MEL-5 melanoma = tested on: SK-MEL-5 melanoma
RXF 393 renal = tested on: RXF 393 renal
ACHN renal = tested on: ACHN renal
SK-MEL-2 melanoma = tested on: SK-MEL-2 melanoma
MCF7 breast = tested on: MCF7 breast
SK-MEL-28 melanoma = tested on: SK-MEL-28 melanoma
OVCAR-8 ovarian = tested on: OVCAR-8 ovarian
NCI/ADR-RES ovarian = tested on: NCI/ADR-RES ovarian
HS 578T breast = tested on: HS 578T breast
NCI-H522 lung = tested on: NCI-H522 lung
HOP-62 NSCLC = tested on: HOP-62 NSCLC
NCI-H23 lung = tested on: NCI-H23 lung
K-562 leukemia = tested on: K-562 leukemia
SF-539 CNS = tested on: SF-539 CNS
COLO 205 colon = tested on: COLO 205 colon
CAKI-1 renal = tested on: CAKI-1 renal
OVCAR-4 ovarian = tested on: OVCAR-4 ovarian
SR leukemia = tested on: SR leukemia
HCC-2998 colon = tested on: HCC-2998 colon
MALME-3M melanoma = tested on: MALME-3M melanoma
M14 melanoma = tested on: M14 melanoma
SNB-19 CNS = tested on: SNB-19 CNS
UACC-62 melanoma = tested on: UACC-62 melanoma
A498 renal = tested on: A498 renal
KM12 colon = tested on: KM12 colon
HOP-92 NSCLC = tested on: HOP-92 NSCLC
NCI-H226 lung = tested on: NCI-H226 lung
UO-31 renal = tested on: UO-31 renal
OVCAR-5 ovarian = tested on: OVCAR-5 ovarian
T-47D breast = tested on: T-47D breast
BT-549 breast = tested on: BT-549 breast
RPMI-8226 leukemia = tested on: RPMI-8226 leukemia
U251 CNS = tested on: U251 CNS
IGROV1 ovarian = tested on: IGROV1 ovarian
A549 NSCLC = tested on: A549 NSCLC
MDA-MB-435 = tested on: MDA-MB-435
TK-10 renal = tested on: TK-10 renal
DU-145 prostate = tested on: DU-145 prostate
SN12C renal = tested on: SN12C renal
HT29 colon = tested on: HT29 colon
MOLT-4 leukemia = tested on: MOLT-4 leukemia
MDA-MB-231 breast = tested on: MDA-MB-231 breast
HCT-116 colon = tested on: HCT-116 colon
NCI-H460 lung = tested on: NCI-H460 lung
PC-3 prostate = tested on: PC-3 prostate
UACC-257 melanoma = tested on: UACC-257 melanoma
SF-268 CNS = tested on: SF-268 CNS
HL-60(TB) leukemia = tested on: HL-60(TB) leukemia
SNB-75 CNS = tested on: SNB-75 CNS
CCRF-CEM leukemia = tested on: CCRF-CEM leukemia
LOX IMVI melanoma = tested on: LOX IMVI melanoma
SW-620 colon = tested on: SW-620 colon
SF-295 CNS = tested on: SF-295 CNS
OVCAR-3 ovarian = tested on: OVCAR-3 ovarian
786-0 renal = tested on: 786-0 renal
HCT-15 colon = tested on: HCT-15 colon
SK-OV-3 ovarian = tested on: SK-OV-3 ovarian

In the case of `CC1=C(C(=O)Nc2ccc3[nH]ncc3c2)C(c2ccc(Cl)c(Cl)c2)CC(=O)N1` (stereo unspecified), the GI50 (EKVX NSCLC) is reported as > 14.6 µM, the TGI (EKVX NSCLC) is reported as > 25 µM and the GI50 (SK-MEL-5 melanoma) is reported as > 25 µM. For the same compound, the TGI (SK-MEL-5 melanoma) was > 25 µM, the GI50 (RXF 393 renal) was 8.2 µM and the TGI (RXF 393 renal) was > 25 µM. For the same compound, the GI50 (ACHN renal) was > 25 µM, the TGI (ACHN renal) was > 25 µM and the GI50 (SK-MEL-2 melanoma) was > 25 µM. For the same compound, the TGI (SK-MEL-2 melanoma) was > 25 µM, the GI50 (MCF7 breast) was > 24.1 µM and the TGI (MCF7 breast) was > 25 µM. The GI50 (SK-MEL-28 melanoma) was > 25 µM, the TGI (SK-MEL-28 melanoma) was > 25 µM and the GI50 (OVCAR-8 ovarian) was > 25 µM. For the same compound, the TGI (OVCAR-8 ovarian) was > 25 µM, the GI50 (NCI/ADR-RES ovarian) was > 25 µM and the TGI (NCI/ADR-RES ovarian) was > 25 µM. For the same compound, the GI50 (HS 578T breast) was 4.29 µM, the TGI (HS 578T breast) was > 25 µM and the GI50 (NCI-H522 lung) was 19.5 µM. The TGI (NCI-H522 lung) was > 25 µM, the GI50 (HOP-62 NSCLC) was 17 µM and the TGI (HOP-62 NSCLC) was > 25 µM. The GI50 (NCI-H23 lung) was > 25 µM, the TGI (NCI-H23 lung) was > 25 µM and the GI50 (K-562 leukemia) was > 25 µM. For the same compound, the TGI (K-562 leukemia) was > 25 µM, the GI50 (SF-539 CNS) was > 16.8 µM and the TGI (SF-539 CNS) was > 25 µM. For the same compound, the GI50 (COLO 205 colon) was 16.6 µM, the TGI (COLO 205 colon) was > 25 µM and the GI50 (CAKI-1 renal) was > 16 µM. The TGI (CAKI-1 renal) was > 25 µM, the GI50 (OVCAR-4 ovarian) was > 25 µM and the TGI (OVCAR-4 ovarian) was > 25 µM. The GI50 (SR leukemia) was > 25 µM, the TGI (SR leukemia) was > 25 µM and the GI50 (HCC-2998 colon) was > 25 µM. For the same compound, the TGI (HCC-2998 colon) was > 25 µM, the GI50 (MALME-3M melanoma) was 10.6 µM and the TGI (MALME-3M melanoma) was > 25 µM. For the same compound, the GI50 (M14 melanoma) was > 25 µM, the TGI (M14 melanoma) was > 25 µM and the GI50 (SNB-19 CNS) was > 25 µM. For the same compound, the TGI (SNB-19 CNS) was > 25 µM, the GI50 (UACC-62 melanoma) was 18.1 µM and the TGI (UACC-62 melanoma) was > 25 µM. For the same compound, the GI50 (A498 renal) was 4.14 µM, the TGI (A498 renal) was > 25 µM and the GI50 (KM12 colon) was > 25 µM. The TGI (KM12 colon) was > 25 µM, the GI50 (HOP-92 NSCLC) was 277 nM and the TGI (HOP-92 NSCLC) was > 7.6 µM. For the same compound, the GI50 (NCI-H226 lung) was 6.09 µM, the TGI (NCI-H226 lung) was > 25 µM and the GI50 (UO-31 renal) was 3.22 µM. The TGI (UO-31 renal) was > 25 µM, the GI50 (OVCAR-5 ovarian) was > 25 µM and the TGI (OVCAR-5 ovarian) was > 25 µM. The GI50 (T-47D breast) was > 25 µM, the TGI (T-47D breast) was > 25 µM and the GI50 (BT-549 breast) was 4.99 µM. The TGI (BT-549 breast) was > 25 µM, the GI50 (RPMI-8226 leukemia) was > 25 µM and the TGI (RPMI-8226 leukemia) was > 25 µM. For the same compound, the GI50 (U251 CNS) was > 25 µM, the TGI (U251 CNS) was > 25 µM and the GI50 (IGROV1 ovarian) was 12.8 µM. The TGI (IGROV1 ovarian) was > 25 µM, the GI50 (A549 NSCLC) was > 25 µM and the TGI (A549 NSCLC) was > 25 µM. The GI50 (MDA-MB-435) was > 25 µM, the TGI (MDA-MB-435) was > 25 µM and the GI50 (TK-10 renal) was > 12.5 µM. The TGI (TK-10 renal) was > 25 µM, the GI50 (DU-145 prostate) was > 25 µM and the TGI (DU-145 prostate) was > 25 µM. The GI50 (SN12C renal) was > 25 µM, the TGI (SN12C renal) was > 25 µM and the GI50 (HT29 colon) was 24.6 µM. For the same compound, the TGI (HT29 colon) was > 25 µM, the GI50 (MOLT-4 leukemia) was > 22.9 µM and the TGI (MOLT-4 leukemia) was > 25 µM. For the same compound, the GI50 (MDA-MB-231 breast) was 15.9 µM, the TGI (MDA-MB-231 breast) was > 25 µM and the GI50 (HCT-116 colon) was 19.4 µM. The TGI (HCT-116 colon) was > 25 µM, the GI50 (NCI-H460 lung) was > 25 µM and the TGI (NCI-H460 lung) was > 25 µM. The GI50 (PC-3 prostate) was > 20.4 µM, the TGI (PC-3 prostate) was > 25 µM and the GI50 (UACC-257 melanoma) was > 25 µM. For the same compound, the TGI (UACC-257 melanoma) was > 25 µM, the GI50 (SF-268 CNS) was 9.62 µM and the TGI (SF-268 CNS) was > 25 µM. The GI50 (HL-60(TB) leukemia) was > 25 µM, the TGI (HL-60(TB) leukemia) was > 25 µM and the GI50 (SNB-75 CNS) was 2250 nM. For the same compound, the TGI (SNB-75 CNS) was > 19.1 µM, the GI50 (CCRF-CEM leukemia) was 24.2 µM and the TGI (CCRF-CEM leukemia) was > 25 µM. For the same compound, the GI50 (LOX IMVI melanoma) was > 22.3 µM, the TGI (LOX IMVI melanoma) was > 25 µM and the GI50 (SW-620 colon) was > 20.7 µM. The TGI (SW-620 colon) was > 25 µM, the GI50 (SF-295 CNS) was > 19.5 µM and the TGI (SF-295 CNS) was > 25 µM. For the same compound, the GI50 (OVCAR-3 ovarian) was > 25 µM, the TGI (OVCAR-3 ovarian) was > 25 µM and the GI50 (786-0 renal) was > 25 µM. For the same compound, the TGI (786-0 renal) was > 25 µM, the GI50 (HCT-15 colon) was > 25 µM and the TGI (HCT-15 colon) was > 25 µM. For the same compound, the GI50 (SK-OV-3 ovarian) was > 25 µM and the TGI (SK-OV-3 ovarian) was > 25 µM.

Reference: PubChem BioAssay (NCI)
